A value given as a limit tells only on which side of the number the result lay.

Usually melting point stands for the temperature, or range, at which the solid turns liquid.

As for `O=C(CCl)NC(c1ccc(F)cc1)c1ccc(F)cc1`, the melting point turned out to be 128 °C. Under `CN(C)c1cc2nc(C(C)(C)C)sc2cc1N=C=S` stands 63 to 66 °C; under `CC(N)CCc1ccc(C(N)=O)s1` (racemic), 65 to 75 °C; under `Cc1c2c(nn1C(C)C)c(N)nc1ccccc12`, 221 to 222 °C.

The molecule `CC[C@H]1c2ccc(C#N)n2-c2cc(F)c(F)cc2N1S(=O)(=O)c1ccc(O)cc1` yielded a melting point of 191 to 192 °C. Under `COC(=O)N1C[C@@H](C#N)[C@H](c2ccc(OC)c(OC3CCCC3)c2)C1` (relative stereo) stands 101 to 104 °C. Under `CCCCOCCOc1ccc(-c2ccc3c(c2)C=C(C(=O)Nc2ccc(O)cc2)CCN3CC(C)C)cc1` stands 155 to 157 °C; under `Cc1c(C#N)sc2nc(-c3ccncc3)nc(N(C)CCO)c12`, 194 to 195 °C. `O=C(O)C(CBr)N(C(=O)c1ccccc1)N1C(=O)CCC1=O` (centres undefined) had a melting point of 174 to 177 °C. As for `CCCCOc1ccc(/C=C/c2nc3c([nH]2)c(=O)n(CC)c(=O)n3CC)cc1`, the figure is 258 to 261 °C. As for `CC1(C)CCC(C(=O)N2CCC[C@H]2C(=O)O)C1SC(=O)c1ccccc1` (some centres undefined), the figure is 187 °C; as for `CCC(C)(C)C1=C(OC(C)=O)C(=O)c2ccccc2C1=O`, 53 °C. As for `CCCCCCCCCCNC(=O)N[C@H]1CCCNC(=O)C1`, the figure is 97 to 98 °C; as for `O=C(Oc1ccc(Oc2ccc(C(F)(F)F)cn2)cc1)N1CCN(c2ncccc2C(F)(F)F)CC1`, 131 to 132 °C; as for `CC(O)CNc1c(Br)cnc2cc(Cl)ccc12` (centres undefined), 161 to 163 °C. As to `CN(c1cccc2cc(C3=NCC(CCNc4nnc[nH]4)S3)[nH]c12)S(=O)(=O)c1cccs1` (centres undefined), the melting point worked out at 195 °C. Under `CC(O)c1ccc(OCCCCl)c(O)c1` (centres undefined) stands 107 to 109 °C. As for `Cc1cccc(C)c1NCCCCn1ccnc1`, the figure is 146 to 147 °C.

Regarding `NC(=O)c1cc(OCCNCc2ccccc2)ccc1O`, the melting point was found to be 140 °C.

For the molecule `CC12CCC(O)CC1CCC1C2CCC2(C)C(c3ccnnc3)CCC12O` (centres undefined), the melting point fell in the range of 210 to 213 °C. Under `CSc1cc(C(C)=O)ccc1OCCCBr` stands 120 to 122 °C; under `COc1ccc(NC(=O)c2ccc(F)c(F)c2)cc1NCc1cccc(C(=O)O)c1`, 218 to 221 °C. As to `CC(C)COC(=O)C1(c2onc(-c3ccc(O)cc3)c2-c2ccccc2)CC1`, the melting point lay within 109 to 110 °C.

Molecule `O=c1[nH]nc(-c2sc3ccccc3c2Cl)o1` came in with a melting point of 218 to 220 °C. As for `CC1(C)C=Nc2cc3[nH]c(-c4ccncc4)cc3cc21`, the figure is over 300 °C. Under `N#Cc1ccc(NC(=O)Nc2ccc(S(N)(=O)=O)cc2)cc1` stands 265 to 267 °C; under `O=C(O)CCCn1ccnc1`, 125 to 126 °C; under `CCN1C(=O)CCc2cc(S(=O)(=O)c3cccc([C@@]4(O)CCO[C@@H](C)C4)c3)ccc21`, 122 to 124 °C.

The molecule `C[C@@H]1O[C@@]1(Cn1cncn1)c1ccc(Cl)cc1` showed a melting point of 51 to 53 °C.

For the molecule `O=C(O)CNC(=O)c1nc2ccc(OCC(F)(F)C(F)(F)C(F)(F)C(F)F)cc2cc1O`, the melting point lay within 170 to 172 °C.

`O=C1CCCN1Cc1ccc(F)cc1` displayed a melting point of 37 to 38 °C. Molecule `CCn1ncnc1COc1nn2c(-c3cc(F)ccc3F)nncc2c1C(C)(C)C` showed a melting point of 108 °C. As for `CCOC(=O)c1nn(-c2ccc(Cl)cc2)c2c1CCC2`, the figure is 122 to 123 °C; as for `COc1nc(C(=O)NS(=O)(=O)c2c(Cl)cccc2Cl)cs1`, 162 to 165 °C; as for `COc1cc2c(cc1F)C1(CO2)C(=O)N(CC2CCCO2)c2ccccc21` (centres undefined), 106 to 116 °C. As for `CCCn1cnc(CO)c1C`, the figure is 88 to 88.5 °C.

`Cn1nc(-c2cnc(N)nc2-c2ccc(Cl)c(Cl)c2)ccc1=O` showed a melting point of 238 °C. As for `COC(=O)C(=NO)c1nc2c(C)c(Cl)ccc2oc1=O`, the melting point was in the range of 190 to 191 °C. As for `Cc1cccc(-c2cc3cnc(N)nc3nc2NC(=O)NC(C)(C)C)c1C`, the figure is 326 to 330 °C. `O=C1CCC(N2Cc3cc(CNC(=O)Nc4ccc(-c5ncc[nH]5)cc4)ccc3C2=O)C(=O)N1` (centres undefined) returned a melting point of 190 to 192 °C. On to `CCCC(C(C)C)C(CN)CC(=O)O` (centres undefined), for which the melting point lay within 160 to 170 °C.

Take `N#Cc1cc(C(=O)Nc2ccc(F)cn2)nc(C(F)(F)F)c1`: the melting point worked out at 186 °C. Under `Cc1ccc(-c2nn(Cc3ccccc3)c(N)c2C#N)cc1` stands 162 to 163 °C.

`N#Cc1ccc(N2C(=O)N(CCF)C(CF)(CF)C2=O)cc1C(F)(F)F` showed a melting point of 136 to 137 °C. The molecule `CO/C=C(/C(=O)OC)c1ccccc1Oc1nc(Cl)nc(Oc2ccccc2)n1` came in with a melting point of 103 to 104 °C. For the molecule `Nc1cc(-n2cc(C(=O)O)c(=O)c3cc(F)c(F)c(Cl)c32)c(F)cc1F`, the melting point lay within 225 to 226 °C.

In the case of `CN(CCN1CCOCC1)C(=O)c1ccc(COc2cccc3c2CN(C2CCC(=O)NC2=O)C3=O)cc1` (centres undefined), the melting point lay in the range of 120 to 122 °C. For the molecule `CC1(C)COC(=O)N1c1nc(-c2cccc(C#N)c2)cs1`, the melting point lay in the range of 181 to 183 °C. As for `C=CC/C=C(\C(=O)O)c1cc(OC)c(O)c2c(Cc3ccccc3)cccc12`, the figure is 156 to 158 °C; as for `COc1cc(N)c(OCc2ccccc2)cc1OC`, 74 °C.

For `O=C(NNC(=O)c1occ(-c2ccccc2)c1-c1ccccc1)c1ccc(O)c(I)c1`, the melting point lay in the range of 171 to 174 °C. As to `Clc1nc(NC2CC2)nc(C2CC2)n1`, the melting point lay within 66 to 67 °C.

`CS(=O)(=O)c1ccc(-c2cc(CCCO)nn2C2CCCCC2)cc1` showed a melting point of 138 °C. Under `O=C1N(C(c2ccccc2)c2ccccc2)c2ccccc2C12COc1cc3c(cc12)CCCO3` (centres undefined) stands 208 to 211 °C; under `COC(=O)c1ccc(C#CC(O)c2cc(C(C)(C)C)c(OCOCC[Si](C)(C)C)c(C(C)(C)C)c2)cc1` (centres undefined), 91 to 92 °C; under `CC(C)(C)OC(=O)N1CC2CN(c3nc(C4=NOC(c5c(F)cccc5F)C4)cs3)CC2C1` (centres undefined), 78.9 to 80.2 °C. For the molecule `O=C(CNS(=O)(=O)c1ccc(Nc2nccc(Nc3ccc(F)cc3)n2)cc1)NC1CCOCC1`, the melting point fell in the range of 253 to 254 °C. Turning to `C=CCOC(=O)NCc1noc([C@H](CS)NC(=O)OC(C)(C)C)n1`, the melting point lay in the range of 55 to 58 °C. Under `CN(C)CCc1c[nH]c2ccc(C=CC(=O)NCc3ccc([N+](=O)[O-])cc3)cc12` stands 177 to 187 °C; under `c1ccc(C(c2ccccc2)N2CCN(CCCCn3cccc3)CC2)cc1`, 80 to 84 °C; under `CCCOc1ccc(C(CC(=O)O)N2C(=O)c3ccccc3C2=O)cc1` (centres undefined), 142 to 144 °C.

In the case of `CON1C(C)(C)CC(OC(=O)N=NC(=O)OC2CC(C)(C)N(OC)C(C)(C)C2)CC1(C)C`, the melting point was 145 to 147 °C.

Molecule `COc1c(C)cc([N+](=O)[O-])cc1C(=S)N(C)C` came in with a melting point of 138 to 139 °C.

For the molecule `N#Cc1nn(-c2c(Cl)cc(C(F)(F)F)cc2Cl)c(N2CCOCC2)c1S(=O)(=O)C(F)(F)F`, the melting point lay in the range of 167 to 169 °C. `C/C=C/Cn1c(Oc2cc(C)cc(C)c2)c(CC)c(=O)[nH]c1=O` showed a melting point of 149 to 150 °C.

Consider `CN1C[C@H](CN2CCN(C(c3ccccc3)c3ccccc3)CC2)C[C@@H]2c3cccc4[nH]c(Cl)c(c34)C[C@H]21`, for which the melting point was found to be 250 °C. `CNC1(C)CN(c2cc3c(cc2F)c(=O)c(C(=O)O)cn3C(C)(C)C)C1`: the melting point fell in the range of 251 to 253 °C. Under `CCCC(O)c1cc(C(=O)OC)c(NC(C)=O)cc1C(F)(F)F` (centres undefined) stands 97 to 101 °C; under `COC(C)=CC(=O)NC1CCC(C)CC1` (centres undefined), 125 °C.

Turning to `O=C1OC(Cc2ccccc2)CN1Cc1ccccc1` (centres undefined), the melting point lay in the range of 81 to 82 °C. As for `COC(=O)Cc1ccccc1NS(C)(=O)=O`, the figure is 73 to 75 °C; as for `Brc1ccc2oc(Cc3cccs3)cc2c1`, 84 to 86 °C. `COC(=O)c1cc(C(=O)NCCCCN2CCC(c3ccc4c(c3OC)CCCC4)CC2)ccc1-c1ccc(C(F)(F)F)cc1` came in with a melting point of 132 °C.

As to `Cc1[nH]c2ccccc2c1CCCN1CCC(c2noc3ccc(F)cc23)CC1`, the melting point was 144 to 146 °C. As for `COc1cc(OC)nc(Oc2ccc(N(C)C)nc2C(=O)O)n1`, the figure is 195 to 198 °C; as for `CC(C=C(N)C(=O)OCc1ccc(Cl)cc1)CP(=O)(O)O` (centres undefined), 207 to 208 °C; as for `CCCCNc1c(C(=O)O)cnc2[nH]ncc12`, 225 °C. `CC(C)CCOc1c(-c2ccc(S(C)(=O)=O)cc2)cnn(-c2cccc(Cl)c2)c1=O` yielded a melting point of 134 to 135 °C.

`CC(=O)Nc1cc(Cl)c([N+](=O)[O-])cc1NC(C)=O` yielded a melting point of 232 °C.

Consider `CCOC(=O)COc1cc2c(c(Cl)c1Cl)C(=O)C(C)(C(C)C)C2` (centres undefined), for which the melting point stood at 113 °C.

In turn, `CCOC(=NC(=O)C1CC1)N1Cc2ccccc2-c2ccccc2C1` came in with a melting point of 97 to 99 °C.

Turning to `O=C(NC(Cc1ccccc1)C(=O)O)OCc1ccc(NC(=O)c2ccccc2)cc1` (centres undefined), the melting point was in the range of 197 to 198 °C. Under `Cc1nnc2n1-c1sc(Cl)cc1C(c1ccccn1)=NC2` stands 174 to 176 °C; under `COc1ccc(-c2c(C(N)=O)c3n(c2Cl)CCN(C(=O)NC(C)(C)C)C3)cc1`, 168 to 170 °C; under `COc1cc(C2(CNC(=O)Nc3c(C(C)C)cccc3C(C)C)CCC2)cc(OC)c1OC`, 145 to 147 °C.

The molecule `N=C(N[N+](=O)[O-])N1CCCC1` gave a melting point of 188 to 191 °C. Under `O=C1c2c(OCc3ccccc3)cccc2-c2nn(CCN(CCO)Cc3ccccc3)c3ccc(NCCNCCO)c1c23` stands 134 to 137 °C; under `CN1CCN(C(=O)c2ccccc2C(c2ccc(O)cc2)c2ccc(O)cc2)CC1`, 226 to 231 °C. As for `O=C(O)c1cccc(Oc2ccc([N+](=O)[O-])cc2Cl)c1`, the figure is 172 to 173 °C.
